Test results taken from US20100070184A1, “METHOD FOR D[…] HIV TO PROTEASE INHIBITOR TREATMENT” (MONOGRAM BIOSCIENCES, INC., priority 2006, published 2010).

System: HIV-1 from the patient plasma sample
Assay: PHENOSENSE HIV phenotypic assay, tipranavir IC50 fold change vs NL4-3 reference strain
Type: cell-based
Settings: for MEAN tipranavir FC / MEDIAN tipranavir FC: 1411 patient samples
Method: In one embodiment, the phenotypic analysis is performed using PHENOSENSE™ (ViroLogic Inc., South San Francisco, Calif.). See Petropoulos et al., 2000, Antimicrob. Agents Chemother. 44:920-928; U.S. Pat. Nos. 5,837,464 and 6,242,187. PHENOSENSE™ is a phenotypic assay that achieves the benefits of phenotypic testing and overcomes the drawbacks of previous assays. Because the assay has been automated, PHENOSENSE™ offers higher throughput under controlled conditions. The result is an assay that accurately defines the susceptibility profile of a patient's HIV isolates to all currently available antiretroviral drugs, and delivers results directly to the physician within about 10 to about 15 days of sample receipt. PHENOSENSE™ is accurate and can obtain results with only one round of viral replication, thereby avoiding selection of subpopulations of virus. The results are quantitative, measuring varying degrees of drug susceptibility, and sensitive—the test can be performed on blood specimens with a viral load of about 500 copies/mL and can detect minority populations of some drug-resistant virus at concentrations of 10% or less of total viral population. Furthermore, the results are reproducible and can vary by less than about 1.4-2.5 fold, depending on the drug, in about 95% of the assays performed.
A resistance test vector (“RTV”) can then be constructed by incorporating the amplified viral gene sequences into a replication defective viral vector by using any method known in the art of incorporating gene sequences into a vector. In one embodiment, restrictions enzymes and conventional cloning methods are used. See Maniatis et al., 1989, Molecular Cloning: A Laboratory Manual, Cold Spring Harbor Laboratory, NY and Ausubel et al., 1989, Current Protocols in Molecular Biology, Greene Publishing Associates and Wiley Interscience, NY. In some embodiments, ApaI and PinAI restriction enzymes are used. Preferably, the replication defective viral vector is the indicator gene viral vector (“IGVV”). In some embodiments, the viral vector contains a means for detecting replication of the RTV. Preferably, the viral vector contains a luciferase expression cassette.
The assay can be performed by first co-transfecting host cells with RTV DNA and a plasmid that expresses the envelope proteins of another retrovirus, for example, amphotropic murine leukemia virus (MLV). Following transfection, virus particles can be harvested and used to infect fresh target cells. The completion of a single round of viral replication can be detected by the means for detecting replication contained in the vector. In one embodiment, the completion of a single round of viral replication results in the production of luciferase. Serial concentrations of anti-viral agents can be added at either the transfection step or the infection step.
Susceptibility to the anti-viral agent can be measured by comparing the replication of the vector in the presence and absence of the anti-viral agent. For example, susceptibility to the anti-viral agent can be measured by comparing the luciferase activity in the presence and absence of the anti-viral agent. Susceptible viruses would produce low levels of luciferase activity in the presence of anti-viral agents, whereas viruses with reduced susceptibility would produce higher levels of luciferase activity.
The phenotypic assay was conducted using the PHENOSENSE™ (Monogram Biosciences, Inc, South San Francisco, Calif.) HIV assay (Petropoulos et al., 2000, Antimicrob. Agents Chemother. 44:920-928; U.S. Pat. Nos. 5,837,464 and 6,242,187, and International Patent Application No. PCT/US06/05512). Plasma samples were collected from HIV-1-infected patients. IC50 values for tipranavir were obtained for the HIV-1 from the patient sample. This was compared to the IC50 for tipranavir against the NL4-3 (GenBank Accession No. AF324493) reference viral strain. […]

[1] = Kohlbrenner TPV mutation score 0
[2] = Kohlbrenner TPV mutation score 0, 4492 samples
[3] = Kohlbrenner TPV mutation score 1
[4] = Kohlbrenner TPV mutation score 1, 4492 samples
[5] = Kohlbrenner TPV mutation score 2
[6] = Kohlbrenner TPV mutation score 2, 4492 samples
[7] = Kohlbrenner TPV mutation score 3
[8] = Kohlbrenner TPV mutation score 3, 4492 samples
[9] = Kohlbrenner TPV mutation score 4
[10] = Kohlbrenner TPV mutation score 4, 4492 samples
[11] = Kohlbrenner TPV mutation score 5
[12] = Kohlbrenner TPV mutation score 5, 4492 samples
[13] = Kohlbrenner TPV mutation score 6
[14] = Kohlbrenner TPV mutation score 6, 4492 samples
[15] = Kohlbrenner TPV mutation score 7
[16] = Kohlbrenner TPV mutation score 7, 4492 samples
[17] = Kohlbrenner TPV mutation score 8-9
[18] = Kohlbrenner TPV mutation score 8, 4492 samples
[19] = Kohlbrenner TPV mutation score 9, 4492 samples
[20] = adjusted mutation score 3, training data with gag (n = 1916)
[21] = adjusted mutation score 3, validation data with gag (n = 1916)
[22] = adjusted mutation score 3.5, training data with gag (n = 1916)
[23] = adjusted mutation score 3.5, validation data with gag (n = 1916)
[24] = adjusted mutation score 4, training data with gag (n = 1916)
[25] = adjusted mutation score 4, validation data with gag (n = 1916)
[26] = adjusted mutation score 4.5, training data with gag (n = 1916)
[27] = adjusted mutation score 4.5, validation data with gag (n = 1916)
[28] = adjusted mutation score 5, training data with gag (n = 1916)
[29] = adjusted mutation score 5, validation data with gag (n = 1916)
[30] = adjusted mutation score 5.5, training data with gag (n = 1916)
[31] = adjusted mutation score 5.5, validation data with gag (n = 1916)
[32] = adjusted mutation score 6, training data with gag (n = 1916)
[33] = adjusted mutation score 6, validation data with gag (n = 1916)
[34] = adjusted mutation score 6.5, training data with gag (n = 1916)
[35] = adjusted mutation score 6.5, validation data with gag (n = 1916)
[36] = adjusted mutation score <3, training data with gag (n = 1916)
[37] = adjusted mutation score <3, validation data with gag (n = 1916)
[38] = adjusted mutation score >=7, training data with gag (n = 1916)
[39] = adjusted mutation score >=7, validation data with gag (n = 1916)
[40] = base mutation score 0, validation data (n = 2246)
[41] = base mutation score 1, validation data (n = 2246)
[42] = base mutation score 2, validation data (n = 2246)
[43] = base mutation score 3, validation data (n = 2246)
[44] = base mutation score 4, validation data (n = 2246)
[45] = base mutation score 5, validation data (n = 2246)
[46] = base mutation score 6, validation data (n = 2246)
[47] = base mutation score 7, validation data (n = 2246)
[48] = base mutation score 8, validation data (n = 2246)
[49] = base mutation score 9, validation data (n = 2246)
[50] = samples with 3 TPV mutations (Kohlbrenner score), 4492 samples

**Q.** What does the source list for CCC[C@@]1(CCc2ccccc2)CC(O)=C([C@H](CC)c2cccc(NS(=O)(=O)c3ccc(C(F)(F)F)cn3)c2)C(=O)O1 [TPV, tipranavir]?
**A.** MEAN tipranavir FC [1]: 0.8; MEDIAN tipranavir FC [1]: 0.7; Mean FC [2]: 0.8; Median FC [2]: 0.7; MEAN tipranavir FC [3]: 1.0; MEDIAN tipranavir FC [3]: 0.8; Mean FC [4]: 1.1; Median FC [4]: 0.9; MEAN tipranavir FC [5]: 1.5; MEDIAN tipranavir FC [5]: 1.1; Mean FC [6]: 1.6; Median FC [6]: 1.1; MEAN tipranavir FC [7]: 3.1; MEDIAN tipranavir FC [7]: 1.6; Mean FC [8]: 3.1; Median FC [8]: 1.7; MEAN tipranavir FC [9]: 6.1; MEDIAN tipranavir FC [9]: 3.0; Mean FC [10]: 5.8; Median FC [10]: 2.9; MEAN tipranavir FC [11]: 11; MEDIAN tipranavir FC [11]: 5.7; Mean FC [12]: 10; Median FC [12]: 5.5; MEAN tipranavir FC [13]: 16; MEDIAN tipranavir FC [13]: 8.8; Mean FC [14]: 17; Median FC [14]: 10.7; MEAN tipranavir FC [15]: 32; MEDIAN tipranavir FC [15]: 12; Mean FC [16]: 24; Median FC [16]: 16; MEAN tipranavir FC [17]: 44; MEDIAN tipranavir FC [17]: 24; Mean FC [18]: 30; Median FC [18]: 31; Mean FC [19]: 42; Median FC [19]: 53; mean TPV FC [20]: 2.3; median TPV FC [20]: 1.5; mean TPV FC [21]: 1.8; median TPV FC [21]: 1.4; mean TPV FC [22]: 3.2; median TPV FC [22]: 1.5; mean TPV FC [23]: 2.3; median TPV FC [23]: 1.5; mean TPV FC [24]: 2.5; median TPV FC [24]: 2.0; mean TPV FC [25]: 2.6; median TPV FC [25]: 2.0; mean TPV FC [26]: 3.1; median TPV FC [26]: 2.2; mean TPV FC [27]: 3.5; median TPV FC [27]: 2.4; mean TPV FC [28]: 4.0; median TPV FC [28]: 2.8; mean TPV FC [29]: 4.4; median TPV FC [29]: 2.8; mean TPV FC [30]: 5.1; median TPV FC [30]: 2.4; mean TPV FC [31]: 5.2; median TPV FC [31]: 3.2; mean TPV FC [32]: 7.2; median TPV FC [32]: 4.9; mean TPV FC [33]: 8.6; median TPV FC [33]: 4.5; mean TPV FC [34]: 10.0; median TPV FC [34]: 6.3; mean TPV FC [35]: 12.6; median TPV FC [35]: 7.4; mean TPV FC [36]: 1.1; median TPV FC [36]: 0.9; mean TPV FC [37]: 1.1; median TPV FC [37]: 0.9; mean TPV FC [38]: 19.7; median TPV FC [38]: 13.4; mean TPV FC [39]: 20.1; median TPV FC [39]: 12.5; mean TPV FC [40]: 0.8; median TPV FC [40]: 0.7; mean TPV FC [41]: 1.1; median TPV FC [41]: 0.9; mean TPV FC [42]: 1.7; median TPV FC [42]: 1.2; mean TPV FC [43]: 3.4; median TPV FC [43]: 1.8; mean TPV FC [44]: 6.4; median TPV FC [44]: 3.2; mean TPV FC [45]: 10.7; median TPV FC [45]: 5.7; mean TPV FC [46]: 18; median TPV FC [46]: 11.7; mean TPV FC [47]: 24; median TPV FC [47]: 19; mean TPV FC [48]: 31; median TPV FC [48]: 33; mean TPV FC [49]: 41; median TPV FC [49]: 41; samples with TPV FC greater than 2-fold [50]: 44%; samples with TPV FC greater than 4-fold [50]: 19%
